From the kinase profiling compilation of Christmann-Franck et al. (2016) come the findings set out here.

Holding throughout (assay): radiometric filter-binding kinase assay, Kinaseprofiler
In assay [1] the test system is GSK3B (human), P49841 [H350L]. Conditions: ATP 15 µM.
Assay [2] deals with PHKG2 (human), P15735 [F290L]. Conditions: ATP 10 µM.
Assay [3] deals with ROS1 (human), P08922 [V2262A]. Conditions: ATP 200 µM.
In assay [4] the test system is MAPKAPK5 (human), Q8IW41 [R291E]. Conditions: ATP 15 µM.
The test system of assay [5] is AKT3 (human), Q9Y243 [S472D]. Conditions: ATP 45 µM.
In assay [6] the test system is CSNK1G3 (human), Q9Y6M4 [K91E/R174G/E302D]. The conditions noted are these: ATP 10 µM.

Each structure is given as a SMILES string.

Chain of PHKG2 (human), P15735 [F290L] (P15735 whole entry F290L, looked up): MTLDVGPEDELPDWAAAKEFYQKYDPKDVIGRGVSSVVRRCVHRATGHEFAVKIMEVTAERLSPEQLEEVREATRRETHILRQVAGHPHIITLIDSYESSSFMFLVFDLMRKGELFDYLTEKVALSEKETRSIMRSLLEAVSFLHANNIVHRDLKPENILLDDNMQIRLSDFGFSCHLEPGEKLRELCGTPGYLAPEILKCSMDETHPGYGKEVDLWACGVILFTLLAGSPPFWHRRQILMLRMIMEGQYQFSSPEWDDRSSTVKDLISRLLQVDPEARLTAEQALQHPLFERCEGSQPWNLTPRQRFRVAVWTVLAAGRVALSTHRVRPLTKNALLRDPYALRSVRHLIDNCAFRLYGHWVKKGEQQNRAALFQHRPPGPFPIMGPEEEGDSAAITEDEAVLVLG
Chain of MAPKAPK5 (human), Q8IW41 [R291E] (Q8IW41 whole entry, looked up, stated change not applied): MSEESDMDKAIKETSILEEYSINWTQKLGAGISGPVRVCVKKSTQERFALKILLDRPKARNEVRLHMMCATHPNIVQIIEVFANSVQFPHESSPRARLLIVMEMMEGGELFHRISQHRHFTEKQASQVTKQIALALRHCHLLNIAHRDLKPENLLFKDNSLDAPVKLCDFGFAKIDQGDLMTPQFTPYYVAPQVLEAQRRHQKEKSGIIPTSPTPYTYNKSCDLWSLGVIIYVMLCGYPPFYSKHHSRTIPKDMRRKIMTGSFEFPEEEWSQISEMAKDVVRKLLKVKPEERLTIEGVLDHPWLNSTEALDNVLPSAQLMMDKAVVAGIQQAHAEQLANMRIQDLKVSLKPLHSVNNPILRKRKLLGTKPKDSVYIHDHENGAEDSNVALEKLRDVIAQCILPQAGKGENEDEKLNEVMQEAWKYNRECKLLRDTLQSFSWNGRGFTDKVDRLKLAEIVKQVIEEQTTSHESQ
Chain of CSNK1G3 (human), Q9Y6M4 [K91E/R174G/E302D] (Q9Y6M4 whole entry, looked up, stated change not applied): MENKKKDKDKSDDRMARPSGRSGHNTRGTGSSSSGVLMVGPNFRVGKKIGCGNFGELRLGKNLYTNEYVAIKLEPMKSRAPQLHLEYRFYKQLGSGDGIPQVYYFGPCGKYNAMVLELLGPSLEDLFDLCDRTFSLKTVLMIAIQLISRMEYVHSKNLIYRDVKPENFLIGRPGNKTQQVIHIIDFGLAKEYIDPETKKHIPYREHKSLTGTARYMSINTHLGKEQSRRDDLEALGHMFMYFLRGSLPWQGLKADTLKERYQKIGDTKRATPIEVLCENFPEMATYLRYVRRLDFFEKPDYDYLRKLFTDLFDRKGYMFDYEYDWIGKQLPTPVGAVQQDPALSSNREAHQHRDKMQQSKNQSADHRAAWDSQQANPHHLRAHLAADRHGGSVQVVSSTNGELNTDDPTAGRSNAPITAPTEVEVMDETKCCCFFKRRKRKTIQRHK
Chain of GSK3B (human), P49841 [H350L] (P49841 whole entry, looked up, stated change not applied): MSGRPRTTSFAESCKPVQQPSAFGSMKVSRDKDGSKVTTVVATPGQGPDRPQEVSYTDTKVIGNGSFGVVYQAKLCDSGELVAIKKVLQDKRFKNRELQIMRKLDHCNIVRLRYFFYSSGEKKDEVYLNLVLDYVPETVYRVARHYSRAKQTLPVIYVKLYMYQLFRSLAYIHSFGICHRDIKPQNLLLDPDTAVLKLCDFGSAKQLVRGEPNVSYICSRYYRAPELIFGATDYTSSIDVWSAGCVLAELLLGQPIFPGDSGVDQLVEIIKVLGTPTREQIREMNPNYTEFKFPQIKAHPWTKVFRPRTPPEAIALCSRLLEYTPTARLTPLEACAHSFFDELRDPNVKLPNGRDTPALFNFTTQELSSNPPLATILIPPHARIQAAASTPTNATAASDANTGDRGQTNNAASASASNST
Chain of AKT3 (human), Q9Y243 [S472D] (Q9Y243 whole entry S472D, looked up): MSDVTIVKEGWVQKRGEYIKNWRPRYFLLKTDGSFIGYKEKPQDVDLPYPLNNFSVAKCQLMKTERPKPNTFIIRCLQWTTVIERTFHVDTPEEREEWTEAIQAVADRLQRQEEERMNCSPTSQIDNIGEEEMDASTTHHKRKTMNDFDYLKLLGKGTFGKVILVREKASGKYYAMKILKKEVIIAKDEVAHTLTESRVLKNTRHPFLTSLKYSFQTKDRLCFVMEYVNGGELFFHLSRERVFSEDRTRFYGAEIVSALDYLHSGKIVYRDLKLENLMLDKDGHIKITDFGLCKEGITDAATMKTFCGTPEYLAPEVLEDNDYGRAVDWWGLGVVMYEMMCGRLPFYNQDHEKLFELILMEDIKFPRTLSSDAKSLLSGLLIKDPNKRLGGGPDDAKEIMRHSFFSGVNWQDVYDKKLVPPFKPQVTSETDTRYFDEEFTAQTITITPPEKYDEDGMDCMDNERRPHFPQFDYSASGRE
Chain of ROS1 (human), P08922 [V2262A] (P08922 whole entry, looked up, stated change not applied): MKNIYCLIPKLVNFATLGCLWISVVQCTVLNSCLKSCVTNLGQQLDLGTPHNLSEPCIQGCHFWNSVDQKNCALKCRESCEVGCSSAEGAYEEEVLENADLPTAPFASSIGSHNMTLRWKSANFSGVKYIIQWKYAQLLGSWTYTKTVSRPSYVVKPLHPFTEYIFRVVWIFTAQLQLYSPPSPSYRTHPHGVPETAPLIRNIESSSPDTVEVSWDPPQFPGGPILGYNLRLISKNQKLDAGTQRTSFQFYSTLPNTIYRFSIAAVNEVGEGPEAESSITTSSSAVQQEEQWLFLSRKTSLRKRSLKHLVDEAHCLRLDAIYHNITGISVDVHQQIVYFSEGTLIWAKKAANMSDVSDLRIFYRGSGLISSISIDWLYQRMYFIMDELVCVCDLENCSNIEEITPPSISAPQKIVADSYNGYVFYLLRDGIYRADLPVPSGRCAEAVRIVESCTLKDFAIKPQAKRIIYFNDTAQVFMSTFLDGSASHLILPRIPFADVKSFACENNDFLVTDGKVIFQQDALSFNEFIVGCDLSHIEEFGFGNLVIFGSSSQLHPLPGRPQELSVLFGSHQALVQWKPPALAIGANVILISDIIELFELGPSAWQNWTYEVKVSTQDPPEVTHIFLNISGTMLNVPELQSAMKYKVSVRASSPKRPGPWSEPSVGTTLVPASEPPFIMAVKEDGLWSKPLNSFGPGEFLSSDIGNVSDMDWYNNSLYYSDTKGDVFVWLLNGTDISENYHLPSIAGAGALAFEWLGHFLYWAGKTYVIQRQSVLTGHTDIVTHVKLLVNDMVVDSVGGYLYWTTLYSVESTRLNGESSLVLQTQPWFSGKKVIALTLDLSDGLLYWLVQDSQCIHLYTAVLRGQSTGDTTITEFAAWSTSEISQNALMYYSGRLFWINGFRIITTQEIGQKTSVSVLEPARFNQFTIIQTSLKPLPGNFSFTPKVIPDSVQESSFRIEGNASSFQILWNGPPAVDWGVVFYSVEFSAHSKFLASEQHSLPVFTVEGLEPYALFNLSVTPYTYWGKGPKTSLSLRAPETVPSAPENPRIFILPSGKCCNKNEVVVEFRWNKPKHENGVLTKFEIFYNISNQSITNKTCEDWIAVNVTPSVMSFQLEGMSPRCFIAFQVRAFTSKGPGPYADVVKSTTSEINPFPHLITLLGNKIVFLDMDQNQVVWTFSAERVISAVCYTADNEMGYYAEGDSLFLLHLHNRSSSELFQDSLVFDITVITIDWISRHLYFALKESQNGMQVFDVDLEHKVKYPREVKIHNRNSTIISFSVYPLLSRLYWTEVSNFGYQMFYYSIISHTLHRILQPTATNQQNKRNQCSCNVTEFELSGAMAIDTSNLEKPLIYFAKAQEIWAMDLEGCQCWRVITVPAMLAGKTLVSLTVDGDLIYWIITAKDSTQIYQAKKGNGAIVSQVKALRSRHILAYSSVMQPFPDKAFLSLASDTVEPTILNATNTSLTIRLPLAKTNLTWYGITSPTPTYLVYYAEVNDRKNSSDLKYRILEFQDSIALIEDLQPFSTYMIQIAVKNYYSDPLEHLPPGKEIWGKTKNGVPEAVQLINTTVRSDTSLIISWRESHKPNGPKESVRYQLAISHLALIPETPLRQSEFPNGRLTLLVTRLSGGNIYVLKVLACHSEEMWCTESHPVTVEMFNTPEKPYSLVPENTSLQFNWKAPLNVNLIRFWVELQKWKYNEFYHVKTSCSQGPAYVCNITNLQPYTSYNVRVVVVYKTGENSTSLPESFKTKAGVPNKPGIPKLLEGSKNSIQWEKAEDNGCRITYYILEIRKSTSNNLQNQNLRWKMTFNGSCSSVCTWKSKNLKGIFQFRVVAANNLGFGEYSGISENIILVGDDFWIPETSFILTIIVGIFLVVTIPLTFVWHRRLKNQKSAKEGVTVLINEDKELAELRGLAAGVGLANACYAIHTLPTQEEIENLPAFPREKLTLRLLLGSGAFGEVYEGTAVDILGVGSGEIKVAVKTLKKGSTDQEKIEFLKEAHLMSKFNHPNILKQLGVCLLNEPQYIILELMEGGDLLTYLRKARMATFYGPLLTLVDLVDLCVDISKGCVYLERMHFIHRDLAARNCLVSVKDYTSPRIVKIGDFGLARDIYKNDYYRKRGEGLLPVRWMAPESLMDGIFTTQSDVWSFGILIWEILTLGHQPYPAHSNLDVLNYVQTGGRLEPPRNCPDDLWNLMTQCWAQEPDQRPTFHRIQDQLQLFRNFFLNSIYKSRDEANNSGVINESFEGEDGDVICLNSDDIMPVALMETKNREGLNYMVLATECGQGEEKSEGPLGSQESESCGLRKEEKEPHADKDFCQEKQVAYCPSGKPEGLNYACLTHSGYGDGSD

For `O=C1c2ccccc2-c2n[nH]c3cccc1c23`, the residual activity (as a rule, the signal under treatment as a percentage of the control signal) was determined as 74% in assay [1] (compound 1.0 µM); 58% in assay [1] (compound 10.0 µM); 77% in assay [2] (compound 1.0 µM); 15% in assay [2] (compound 10.0 µM); 93% in assay [3] (compound 1.0 µM); 85% in assay [3] (compound 10.0 µM). For the same molecule, the residual activity in assay [4] (compound 1.0 µM) was determined as 59%; in assay [4] (compound 10.0 µM), 14%; in assay [5] (compound 1.0 µM), 89%; in assay [5] (compound 10.0 µM), 66%; in assay [6] (compound 1.0 µM), 83%; in assay [6] (compound 10.0 µM), 31%.
With `CN[C@@H]1C[C@H]2O[C@@](C)([C@@H]1OC)n1c3ccccc3c3c4c(c5c6ccccc6n2c5c31)C(=O)NC4`, the figures for the residual activity in assay [5] (compound 10.0 µM), in assay [6] (compound 1.0 µM) and in assay [6] (compound 10.0 µM) were 0%, 95% and 52%, respectively.
Turning to `O=C(Nc1cccc(Nc2nccc(Nc3cccc(C(F)(F)F)c3)n2)c1)C1CC1`, the residual activity in assay [2] (compound 10.0 µM) was determined as 100%.
On to `COC(=O)[C@]1(O)C[C@@H]2O[C@@]1(C)n1c3ccccc3c3c4c(c5c6ccccc6n2c5c31)C(=O)NC4`, for which the residual activity in assay [2] (compound 1.0 µM) and in assay [4] (compound 10.0 µM) was 0% in each case.
For the molecule `O=C1Nc2ccccc2/C1=C1\Nc2ccccc2\C1=N/O`, the residual activity in assay [1] (compound 1.0 µM) was found to be 10%; in assay [1] (compound 10.0 µM) it was 1%; in assay [2] (compound 1.0 µM), 25%; in assay [2] (compound 10.0 µM) it was 12%; in assay [3] (compound 1.0 µM) it was 105%; in assay [3] (compound 10.0 µM) it was 88%. The residual activity in assay [4] (compound 1.0 µM) is 78%; in assay [4] (compound 10.0 µM) it was 24%; in assay [5] (compound 1.0 µM), 95%; in assay [5] (compound 10.0 µM) it was 64%; in assay [6] (compound 1.0 µM), 63%; in assay [6] (compound 10.0 µM), 20%.
